According to paper PMC2737065 (Journal of the American Chemical Society, 2009):

Target: P450 19A1 (aromatase) (Homo sapiens, UniProt P11511)
Test: competitive ABPP: blockade of probe […] labeling, in-gel fluorescence
Assay type: biochemical

P450 19A1 (aromatase), sequence (P16435 2-677): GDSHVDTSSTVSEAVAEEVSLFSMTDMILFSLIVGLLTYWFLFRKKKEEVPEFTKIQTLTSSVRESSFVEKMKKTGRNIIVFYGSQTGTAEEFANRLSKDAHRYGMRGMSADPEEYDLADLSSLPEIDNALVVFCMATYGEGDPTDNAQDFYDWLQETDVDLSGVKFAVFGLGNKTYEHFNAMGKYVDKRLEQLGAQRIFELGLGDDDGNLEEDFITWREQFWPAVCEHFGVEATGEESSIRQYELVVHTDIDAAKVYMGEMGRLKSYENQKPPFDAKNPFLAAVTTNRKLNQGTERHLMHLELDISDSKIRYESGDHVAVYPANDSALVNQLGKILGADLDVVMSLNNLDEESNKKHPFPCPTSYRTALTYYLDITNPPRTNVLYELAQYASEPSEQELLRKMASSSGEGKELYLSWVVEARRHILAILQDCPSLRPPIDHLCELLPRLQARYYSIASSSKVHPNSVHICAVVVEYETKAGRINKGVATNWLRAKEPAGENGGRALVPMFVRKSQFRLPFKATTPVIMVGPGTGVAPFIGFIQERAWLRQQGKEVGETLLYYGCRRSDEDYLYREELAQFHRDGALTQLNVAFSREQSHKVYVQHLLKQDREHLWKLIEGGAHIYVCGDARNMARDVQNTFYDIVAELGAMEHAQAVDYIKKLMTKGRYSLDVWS
P450 19A1 (aromatase), sequence (P11511 whole entry): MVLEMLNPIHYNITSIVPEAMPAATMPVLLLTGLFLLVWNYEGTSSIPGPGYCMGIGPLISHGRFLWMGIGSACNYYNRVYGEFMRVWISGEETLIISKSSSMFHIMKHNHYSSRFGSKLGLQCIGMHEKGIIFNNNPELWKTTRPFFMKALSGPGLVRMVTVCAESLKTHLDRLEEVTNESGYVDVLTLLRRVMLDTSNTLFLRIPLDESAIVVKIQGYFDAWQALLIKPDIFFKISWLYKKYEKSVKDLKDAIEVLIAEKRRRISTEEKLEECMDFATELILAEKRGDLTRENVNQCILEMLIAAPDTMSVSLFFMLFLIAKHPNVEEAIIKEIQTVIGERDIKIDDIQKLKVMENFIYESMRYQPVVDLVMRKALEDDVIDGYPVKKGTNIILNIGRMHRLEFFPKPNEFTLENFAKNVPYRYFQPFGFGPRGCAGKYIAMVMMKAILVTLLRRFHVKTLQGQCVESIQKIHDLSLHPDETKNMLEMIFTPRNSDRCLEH

Compound: C[C@]12CCC(=O)C(O)=C1CC[C@@H]1[C@@H]2CC[C@]2(C)C(=O)CC[C@@H]12 [formestane]
- IC50: 430 nM
